Results as given in PubChem BioAssay (NCI).
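1) Cells in 96-well plates. 2) Compound, 48 h, 5 concentrations. 3) Linear interpolation between surrounding doses. 4) Unreached endpoint = highest concentration. The concentration for 50% growth inhibition is given as GI50. TGI marks complete inhibition of growth.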

What was measured:
Assay in all cases: growth of human tumour cells (NCI), 48 h
[1] = system: NCI/ADR-RES ovarian
[2] = system: CAKI-1 renal
[3] = system: LOX IMVI melanoma
[4] = system: COLO 205 colon
[5] = system: MDA-MB-231 breast
[6] = system: RPMI-8226 leukemia
[7] = system: OVCAR-3 ovarian
[8] = system: SF-295 CNS
[9] = system: HCT-15 colon
[10] = system: MCF7 breast

Row | SMILES | GI50 [1] [µM] | TGI [1] [µM] | GI50 [2] [µM] | TGI [2] [µM] | GI50 [3] [µM] | TGI [3] [µM] | GI50 [4] [µM] | TGI [4] [µM] | GI50 [5] [µM] | TGI [5] [µM] | GI50 [6] [µM] | TGI [6] [µM] | GI50 [7] [µM] | TGI [7] [µM] | GI50 [8] [µM] | TGI [8] [µM] | GI50 [9] [µM] | TGI [9] [µM] | GI50 [10] [µM] | TGI [10] [µM]
1 | CN1CCC2(CC1)N=C(SCC(=O)Nc1cnc3ccccc3c1)C(c1ccc(Br)cc1)=N2 | 2.27 | 5.76 | 1.64 | 3.94 | 1.66 | 3.11 | 1.64 | 3.35 | 1.55 | 3.23 | 2.12 | 4.9 | 3.29 | 12 | 1.79 | 3.93 | 1.86 | 3.76 | 1.8 | 3.55
2 | O=C(O)CCC(c1ccccc1)(c1ccccc1)c1ccccc1 | – | > 100 | 66.4 | > 100 | – | > 100 | – | 97.6 | – | > 100 | – | > 94.3 | – | > 69.6 | – | > 100 | – | > 100 | – | > 71
3 | Cn1c(CCCC(=O)O)nc2cc(N(CCCl)CCCl)ccc21 | 98.2 | > 100 | 53.2 | > 86.8 | > 58.8 | > 100 | > 95.8 | > 100 | > 69.6 | > 100 | > 85.3 | > 100 | > 66.2 | > 93.3 | > 64.4 | > 100 | > 100 | > 100 | 69.2 | > 100
4 | COc1ccc(OC)c(Nc2nc3nonc3nc2Nc2cccc(Br)c2)c1 | 0.541 | 13.9 | 0.811 | 15.2 | 1.93 | > 100 | 0.853 | 2.73 | 1.06 | 10.7 | 0.309 | 3.05 | 0.6 | 21.6 | 0.429 | 3.29 | 0.756 | > 100 | 1.63 | > 100
5 | NS(=O)(=O)c1ccc(N=Nc2ccc[nH]c2=O)cc1 | – | > 100 | – | > 100 | – | > 100 | – | > 100 | – | > 100 | – | > 100 | – | > 100 | – | > 100 | – | > 100 | – | > 100
6 | CC1(C)C(N2CCOCC2)CS1(=O)=O (stereo unspecified) | – | > 10 | – | > 10 | – | > 10 | – | > 10 | – | > 10 | – | > 10 | – | > 10 | – | > 10 | – | > 10 | – | > 10
7 | O=C1/C(=C\c2ccc(F)cc2)CN(C(=O)c2ccccc2F)C/C1=C\c1ccc(F)cc1 | 2.8 | 16.4 | 2.65 | 9.16 | 0.28 | 0.957 | 1.86 | 3.54 | 1.83 | 3.95 | 0.137 | 0.817 | 1.67 | 3.11 | 2.08 | 5.02 | 1.05 | 2.58 | 0.436 | 1.68
